Assay results from ChEMBL document CHEMBL4251746, “Design of Conformationally Constrained Acyl Sulfonamide Isosteres: Identification of N-([1,2,4]Triazolo[4,3- a]pyridin-3-yl)methane-sulfonamides as Potent and Selective hNaV1.7 Inhibitors for the Treatment of Pain” (J Med Chem, 2018).
Values after ≈ are worked out from the molar mass of the structure shown. One block for each molecule: values may come before it.

How the values were obtained:
physchem [1] = details: 1-octanol/PBS, pH 7.4
[2] = Dissociation constant, pKa of the compound by UV-metric method; type: physicochemical
in vivo [3] = details: Sprague-Dawley, rat, iv, 1 mg/kg
in vivo [4] = details: CF1, mouse, iv, 0.5 mg/kg
in vivo [5] = details: FVB hSCN9a Tg, mouse, plasma, po, 30 mg/kg
in vivo [6] = details: brain/plasma
in vitro [7] = details: dog, MDCK-MDR1
in vitro [8] = details: dog, MDCK-MDR1; remark: listed apart in the source
physchem [9] = details: PBS, pH 7.4
in vivo [10] = details: beagle, dog, iv, 0.5 mg/kg
in vivo [11] = details: FVB hSCN9a Tg, mouse, po, 30 mg/kg
[12] = octanol/water, pH 7.4

SMILES: CS(=O)(=O)Nc1nnc2cc(COc3cc(Cl)cc(Cl)c3)c(C3CC3)cn12
Vd (in vivo [3]): 0.6 L/kg
Vd (in vivo [4]): 0.2 L/kg
concentration at 3 h (in vivo [5]): 18.8 µM
Kp (in vivo [6]): < 0.004
logD (physchem [1]): 1.9
Papp A→B at 10 µM (in vitro [7]): 4 ×10⁻⁶ cm/s
Papp B→A at 10 µM (in vitro [8]): 15 ×10⁻⁶ cm/s
solubility kinetic at 24 h, 200 µM (physchem [9]): 17 µM (≈ 7.26 µg/mL)

SMILES: CS(=O)(=O)Nc1nnc2cc(OCC34CC5CC(CC(C5)C3)C4)c(C3CC3)cn12
Vd (in vivo [3]): 0.6 L/kg
Vd (in vivo [10]): 0.4 L/kg
concentration at 3 h (in vivo [5]): 46.2 µM
Tmax at 3 h (in vivo [11]): 2 h
Kp (in vivo [6]): > 0.17
logD (physchem [1]): 3.5
Papp A→B at 10 µM (in vitro [7]): 3.2 ×10⁻⁶ cm/s
Papp B→A at 10 µM (in vitro [8]): 3.2 ×10⁻⁶ cm/s
solubility kinetic at 24 h, 200 µM (physchem [9]): 32 µM (≈ 13.3 µg/mL)

SMILES: CS(=O)(=O)Nc1nnc2cc(OCC34CC5CC(CC(C5)C3)C4)c(C3CCC3)cn12
logD (physchem [1]): 3.9

SMILES: CS(=O)(=O)Nc1noc2cc(OCc3ccc(Cl)c(Cl)c3)c(Cl)cc12
logD (physchem [1]): 1.8

SMILES: CNS(=O)(=O)Nc1nnc2cc(OCCC34CC5CC(CC(C5)C3)C4)c(C3CC3)cn12
logD (physchem [1]): 3.7

SMILES: CS(=O)(=O)NC(=O)c1cc(Cl)c(OCC23CC4CC(CC(C4)C2)C3)cc1F
pKa [2]: 3.8
logD [12]: 2.4

SMILES: CNS(=O)(=O)Nc1nnc2cc(OCC34CC5CC(CC(C5)C3)C4)c(C3CC3)cn12
logD (physchem [1]): 3.2

SMILES: CS(=O)(=O)Nc1noc2cc(COc3ccc(Cl)c(Cl)c3)c(Cl)cc12
logD (physchem [1]): 2.5

Further lines, results first:

logD (physchem [1]): 3.1
SMILES: CCc1cn2c(NS(C)(=O)=O)nnc2cc1OCC12CC3CC(CC(C3)C1)C2

logD (physchem [1]): 2.8
SMILES: CS(=O)(=O)Nc1nnc2cc(OCC34CC5CC(CC(C5)C3)C4)c(Br)cn12

logD (physchem [1]): 3.1
SMILES: O=S(=O)(Nc1nnc2cc(OCC34CC5CC(CC(C5)C3)C4)c(C3CC3)cn12)C(F)F

pKa [2]: 5.6
logD (physchem [1]): 2.7
SMILES: CS(=O)(=O)Nc1nnc2cc(OCC34CC5CC(CC(C5)C3)C4)c(Cl)cn12

logD (physchem [1]): 2.4
SMILES: CS(=O)(=O)Nc1noc2cc(COc3ccc(Cl)c(Cl)c3)c(C3CC3)cc12

logD (physchem [1]): 1.5
SMILES: CS(=O)(=O)Nc1nnc2cc(COc3ccc(Cl)c(Cl)c3)c(C3CC3)cn12

logD (physchem [1]): 2.3
SMILES: CS(=O)(=O)Nc1nnc2cc(OCC3C4CC5CC(C4)CC3C5)c(C3CC3)cn12 (configuration not stated)

logD (physchem [1]): 2.9
SMILES: CC(C)c1cn2c(NS(C)(=O)=O)nnc2cc1OCC12CC3CC(CC(C3)C1)C2

logD (physchem [1]): 4.7
SMILES: O=S(=O)(Nc1nnc2cc(OCC34CC5CC(CC(C5)C3)C4)c(C3CC3)cn12)C1CCC1

pKa [2]: 4.7
logD (physchem [1]): 3.5
SMILES: CS(=O)(=O)Nc1noc2cc(OCC34CC5CC(CC(C5)C3)C4)c(Cl)cc12

logD (physchem [1]): 2.2
SMILES: CS(=O)(=O)Nc1nnc2cc(OCC34CC5CC(CC(C5)C3)C4)ccn12
